# pEC50: −log10 of the molar value. Like-named read-outs stand apart in the source and are kept apart here.
# What was measured:
# DR1 = assay: Parasite growth inhibition assay, DR1; type: cell-based; conditions: Plasmodium falciparum, read-out: EC50 (Fig. 1e)
# Procedure: (§1) Parasite growth inhibition assays for P. falciparum wild type and mutants were performed as reported[19],[32].
# Dd2 = assay: Parasite growth inhibition assay, Dd2; type: cell-based; conditions: Plasmodium falciparum
# Procedure: as §1
# [1] = tested on: strain with double mutations in both the proteasome and K13; conditions: versus wild-type strain; cited from earlier work
# Source text: (§2) Mutations in Kelch13 (K13) are associated with ART resistance at the ring stage in laboratory settings[20]–[22]. […] Even a strain with doub ...
# DR2 = assay: Parasite growth inhibition assay, DR2; type: cell-based; conditions: Plasmodium falciparum, read-out: EC50 (Fig. 1e)
# Procedure: as §1
# Cam3.I^Rev = assay: Ring-stage survival assay, revertant; type: cell-based, Plasmodium falciparum; conditions: 700 nM, 6 h
# Procedure: (§3) Ring-stage survival assays (RSA) were performed as reported. Parasite cultures, artemisinin resistant Cam3.I^R539T and the genetically engineered artemisinin sensitive revertant Cam3.I^rev, were synchronized with 5% sorbitol and a Percoll-sorbitol gradient to obtain tightly synchronized late-stage parasites. After isolation, the tightly synchronized parasites were then allowed to reinvade fresh red blood cells for 3 h and the microscopically confirmed ring stage parasite cultures were again subjected to 5% sorbitol to obtain 0–3 h rings. The isolated ring stage cultures were then plated into a 96-well plate at 0.5% parasitemia and treated with DHA and TDI-8304 at 700 nM at 37 °C in standard gas conditions for 6 h. The plates were then spun and washed to remove compounds and replenished with fresh medium without compounds. Parasite growth was assessed 66 h later using flow cytometry (Becton-Dickson flow cytometer) and nucleic acid stains HO (Hoechst 33342) and TO (thiazole orange).
# Cam3.I^R539T = assay: Ring-stage survival assay, ART-resistant; type: cell-based, Plasmodium falciparum; conditions: 700 nM, 6 h
# Procedure: as §3
# DR1/2/4 = assay: Parasite growth inhibition assay, DHA-selected clones; type: cell-based, Plasmodium falciparum
# Procedure: as §1
# DR4 = assay: Parasite growth inhibition assay, DR4; type: cell-based; conditions: Plasmodium falciparum, Exp 2; read-out: EC50 (Fig. 1e)
# Procedure: as §1
# [2] = tested on: Mutants resistant to proteasome inhibitors; conditions: versus corresponding wild-type strains; cited from earlier work
# Source text: as §2
# P. falciparum 3D7A = conditions: compared with pyrimethamine; cited from earlier work
# Source text: We previously reported two classes of non-covalent Pf20S selective inhibitors, one with a fast-on/off kinetics, represented by TDI-4258[19], and one with a time-dependent inhibition kinetics, represented by TDI-8304 (Fig. 1a)[16]. […] To investigate if inhibitors of the same target with diffe ...
smiles,measurement,setting,value
"C[C@H]1[C@@H](O)O[C@@H]2O[C@@]3(C)CC[C@H]4[C@H](C)CC[C@@H]1[C@@]24OO3 [DHA, dihydroartemisinin]",pEC50,DR1; Exp 1,7.91
same,pEC50,DR1; Exp 2,8.15
same,pEC50,"Dd2; DD2, read-out: EC50 (Fig. 1e), Exp 1",9.00
same,pEC50,"Dd2; DD2, read-out: EC50 (Fig. 1e), Exp 2",9.05
same,susceptibility to DHA,[1],more susceptible to DHA than the wild-type strain
same,pEC50,DR2; Exp 1,7.97
same,pEC50,DR2; Exp 2,8.06
same,"ring-stage survival result in words, K13 Rev","Cam3.I^Rev; 0–3 h rings, readout 66 h later",highly susceptible
same,ring-stage survival (Fig. 1c),Cam3.I^Rev; Exp 1,1.86
same,ring-stage survival (Fig. 1c),Cam3.I^Rev; Exp 2,-0.27
same,ring-stage survival (Fig. 1c),Cam3.I^Rev; Exp 3,3.91
same,"ring-stage survival result in words, K13 R539T","Cam3.I^R539T; 0–3 h rings, readout 66 h later, means of three independent experiments, paired t test",highly resistant
same,ring-stage survival (Fig. 1c),Cam3.I^R539T; Exp 1,18.01
same,ring-stage survival (Fig. 1c),Cam3.I^R539T; Exp 2,10.3
same,ring-stage survival (Fig. 1c),Cam3.I^R539T; Exp 3,6.84
same,EC50 shift in the erythrocyte assays,DR1/2/4; DHA-selected clones versus Dd2,~ 10 fold
same,sensitivity of DR1/2/4 in words,"DR1/2/4; trophozoite stage, versus Dd2",highly resistant
same,pEC50,DR4,8.09
"C[C@@H]1CC[C@H]2[C@@H](C)C(=O)O[C@@H]3O[C@@]4(C)CC[C@@H]1[C@]32OO4 [ART, artemisinin]",susceptibility to ART,[2],more susceptible to ART than the corresponding wild-type strains
Cc1cc(C(=O)N[C@@H](CC(=O)NC(C)(C)C)C(=O)NCCNC(=O)c2cccc(-n3cccn3)c2)no1 [TDI-4258],in vitro parasite reduction ratio,P. falciparum 3D7A,modest in vitro parasite reduction ratio similar to that of the antimalarial drug pyrimethamine

# Reference: publication PMC10721928, “Structures revealing mechanisms of resistance and collateral sensitivity of Plasmodium falciparum to proteasome inhibitors” (Nature Communications, 2023)
